Results published in ChEMBL document CHEMBL4308841, “Synthesis, in vitro antiproliferative activity, and kinase inhibitory effects of pyrazole-containing diarylureas and diarylamides” (Eur J Med Chem, 2018).

Columns and labels:
RPMI-8226 [1] = assay: Growth inhibition of human RPMI8226 cells incubated for 48 hrs by sulforhodamine B assay; assay type: functional, cell-based; conditions: RPMI-8226, 48 h
SF-295 = assay: Growth inhibition of human SF295 cells assessed as cell growth at 0.01 uM incubated for 48 hrs by sulforhodamine B assay relative to control; assay type: functional; conditions: SF-295, 48 h, read-out: Activity
SR = assay: Growth inhibition of human SR cells incubated for 48 hrs by sulforhodamine B assay; assay type: functional, cell-based
SN12C = assay: Growth inhibition of human SN12C cells assessed as cell growth at 0.01 uM incubated for 48 hrs by sulforhodamine B assay relative to control; assay type: functional; conditions: read-out: Activity
NCI-H23 = assay: Growth inhibition of human NCI-H23 cells assessed as cell growth at 0.01 uM incubated for 48 hrs by sulforhodamine B assay relative to control; assay type: functional; conditions: NCI-H23, 48 h, read-out: Activity
DU-145 = assay: Growth inhibition of human DU145 cells assessed as cell growth at 1 uM incubated for 48 hrs by sulforhodamine B assay relative to control; assay type: functional; conditions: DU-145, 48 h, read-out: Activity
NCI/ADR-RES = assay: Growth inhibition of human NCI/ADR-RES cells assessed as cell growth at 0.01 uM incubated for 48 hrs by sulforhodamine B assay relative to control; assay type: functional; conditions: read-out: Activity
OVCAR-5 = assay: Growth inhibition of human OVCAR5 cells assessed as cell growth at 0.1 uM incubated for 48 hrs by sulforhodamine B assay relative to control; assay type: functional; conditions: OVCAR-5, 48 h, read-out: Activity
RPMI-8226 [2] = assay: Growth inhibition of human RPMI8226 cells assessed as cell growth at 100 uM incubated for 48 hrs by sulforhodamine B assay relative to control; assay type: functional; conditions: RPMI-8226, 48 h, read-out: Activity
NCI-H522 [3] = assay: Growth inhibition of human NCI-H522 cells assessed as cell growth at 10 uM incubated for 48 hrs by sulforhodamine B assay relative to control; assay type: functional; conditions: NCI-H522, 48 h, read-out: Activity
NCI-H522 [4] = assay: Growth inhibition of human NCI-H522 cells incubated for 48 hrs by sulforhodamine B assay; assay type: functional, cell-based; conditions: NCI-H522, 48 h
SW-620 = assay: Growth inhibition of human SW620 cells assessed as cell growth at 0.1 uM incubated for 48 hrs by sulforhodamine B assay relative to control; assay type: functional; conditions: SW-620, 48 h, read-out: Activity
UACC-257 = assay: Growth inhibition of human UACC257 cells assessed as cell growth at 0.1 uM incubated for 48 hrs by sulforhodamine B assay relative to control; assay type: functional; conditions: UACC-257, 48 h, read-out: Activity
ACHN [5] = assay: Growth inhibition of human ACHN cells assessed as cell growth at 100 uM incubated for 48 hrs by sulforhodamine B assay relative to control; assay type: functional; conditions: read-out: Activity
ACHN [6] = assay: Growth inhibition of human ACHN cells incubated for 48 hrs by sulforhodamine B assay; assay type: functional, cell-based
OVCAR-3 = assay: Growth inhibition of human OVCAR3 cells assessed as cell growth at 0.1 uM incubated for 48 hrs by sulforhodamine B assay relative to control; assay type: functional; conditions: OVCAR-3, 48 h, read-out: Activity
SK-MEL-5 = assay: Growth inhibition of human SK-MEL-5 cells incubated for 48 hrs by sulforhodamine B assay; assay type: functional, cell-based; conditions: SK-MEL-5, 48 h
SNB-75 [7] = assay: Growth inhibition of human SNB75 cells assessed as cell growth at 0.01 uM incubated for 48 hrs by sulforhodamine B assay relative to control; assay type: functional; conditions: SNB-75, 48 h, read-out: Activity
U-251 = assay: Growth inhibition of human U251 cells incubated for 48 hrs by sulforhodamine B assay; assay type: functional, cell-based; conditions: U-251, 48 h
LOX IMVI = assay: Growth inhibition of human LOXIMVI cells incubated for 48 hrs by sulforhodamine B assay; assay type: functional
A549 = assay: Growth inhibition of human A549/ATCC cells assessed as cell growth at 0.01 uM incubated for 48 hrs by sulforhodamine B assay relative to control; assay type: functional; conditions: A549, 48 h, read-out: Activity
K562 = assay: Growth inhibition of human K562 cells assessed as cell growth at 0.01 uM incubated for 48 hrs by sulforhodamine B assay relative to control; assay type: functional; conditions: K562, 48 h, read-out: Activity
SK-MEL-2 = assay: Growth inhibition of human SK-MEL-2 cells assessed as cell growth at 0.1 uM incubated for 48 hrs by sulforhodamine B assay relative to control; assay type: functional; conditions: SK-MEL-2, 48 h, read-out: Activity
SK-OV-3 = assay: Growth inhibition of human SKOV3 cells assessed as cell growth at 0.01 uM incubated for 48 hrs by sulforhodamine B assay relative to control; assay type: functional; conditions: SK-OV-3, 48 h, read-out: Activity
SNB-19 = assay: Growth inhibition of human SNB19 cells assessed as cell growth at 1 uM incubated for 48 hrs by sulforhodamine B assay relative to control; assay type: functional; conditions: SNB-19, 48 h, read-out: Activity
MDA-MB-435 = assay: Growth inhibition of human MDA-MB-435 cells assessed as cell growth at 1 uM incubated for 48 hrs by sulforhodamine B assay relative to control; assay type: functional; conditions: MDA-MB-435, 48 h, read-out: Activity
IGROV-1 = assay: Growth inhibition of human IGROV1 cells assessed as cell growth at 0.1 uM incubated for 48 hrs by sulforhodamine B assay relative to control; assay type: functional; conditions: IGROV-1, 48 h, read-out: Activity
SNB-75 [8] = assay: Growth inhibition of human SNB75 cells assessed as cell growth at 100 uM incubated for 48 hrs by sulforhodamine B assay relative to control; assay type: functional; conditions: SNB-75, 48 h, read-out: Activity
[9] = read-out: LC50 (the source's name)
[10] = read-out: pLC50 (the source's name) (converted)

## COc1cc(Cl)cc(-c2nn(-c3cccc(NC(=O)c4cccc(C(F)(F)F)c4)c3)cc2-c2ccncc2)c1
RPMI-8226 [1]
  IC50: 3.13 µM
RPMI-8226 [1]; read-out: GI50
  GI50: 3.12 µM
RPMI-8226 [1]; [9]
  CC50: > 100 µM
RPMI-8226 [1]; read-out: TGI
  TGI: > 100 µM
RPMI-8226 [1]; read-out: pGI50 (converted)
  GI50: 3.16 µM
RPMI-8226 [1]; [10]
  CC50: > 100 µM
RPMI-8226 [1]; read-out: pTGI (converted)
  TGI: > 100 µM
SF-295
  growth at 0.01 µM: 98%
SR; read-out: GI50
  GI50: 2.48 µM
SR; [9]
  CC50: > 100 µM
SR; read-out: TGI
  TGI: > 100 µM
SR; read-out: pGI50 (converted)
  GI50: 3.09 µM
SR; [10]
  CC50: > 100 µM
SR; read-out: pTGI (converted)
  TGI: > 100 µM
SN12C
  growth at 0.01 µM: 99%
NCI-H23
  growth at 0.01 µM: 93%
DU-145
  growth at 1 µM: 100%
NCI/ADR-RES
  growth at 0.01 µM: 103%
OVCAR-5
  growth at 0.1 µM: 94%
RPMI-8226 [2]
  growth at 100 µM: 22%
NCI-H522 [3]
  growth at 10 µM: 32.2%
NCI-H522 [4]; read-out: GI50
  GI50: 1.9 µM
NCI-H522 [4]; [9]
  CC50: > 100 µM
NCI-H522 [4]; read-out: TGI
  TGI: > 100 µM
NCI-H522 [4]; read-out: pGI50 (converted)
  GI50: 2 µM
NCI-H522 [4]; [10]
  CC50: > 100 µM
NCI-H522 [4]; read-out: pTGI (converted)
  TGI: > 100 µM
SW-620
  growth at 0.1 µM: 99%
UACC-257
  growth at 0.1 µM: 91%
ACHN [5]
  growth at 100 µM: 40%
ACHN [6]; read-out: GI50
  GI50: 7.21 µM
ACHN [6]; [9]
  CC50: > 100 µM
ACHN [6]; read-out: TGI
  TGI: > 100 µM
ACHN [6]; read-out: pGI50 (converted)
  GI50: 7.24 µM
ACHN [6]; [10]
  CC50: > 100 µM
ACHN [6]; read-out: pTGI (converted)
  TGI: > 100 µM
OVCAR-3
  growth at 0.1 µM: 108%
SK-MEL-5; read-out: GI50
  GI50: 5.43 µM
SK-MEL-5; [9]
  CC50: > 100 µM
SK-MEL-5; read-out: TGI
  TGI: > 100 µM
SK-MEL-5; read-out: pGI50 (converted)
  GI50: 5.37 µM
SK-MEL-5; [10]
  CC50: > 100 µM
SK-MEL-5; read-out: pTGI (converted)
  TGI: > 100 µM
SNB-75 [7]
  growth at 0.01 µM: 90%
U-251
  IC50: 5.56 µM
U-251; read-out: GI50
  GI50: 5.58 µM
U-251; [9]
  CC50: > 100 µM
U-251; read-out: TGI
  TGI: > 100 µM
U-251; read-out: pGI50 (converted)
  GI50: 5.62 µM
U-251; [10]
  CC50: > 100 µM
U-251; read-out: pTGI (converted)
  TGI: > 100 µM
LOX IMVI; read-out: GI50
  GI50: 1.57 µM
LOX IMVI; [9]
  CC50: > 100 µM
LOX IMVI; read-out: TGI
  TGI: > 100 µM
LOX IMVI; read-out: pGI50 (converted)
  GI50: 15.8 µM
LOX IMVI; [10]
  CC50: > 100 µM
LOX IMVI; read-out: pTGI (converted)
  TGI: > 100 µM
A549
  growth at 0.01 µM: 98%
K562
  growth at 0.01 µM: 108%
SK-MEL-2
  growth at 0.1 µM: 95%
SK-OV-3
  growth at 0.01 µM: 102%
SNB-19
  growth at 1 µM: 100%
MDA-MB-435
  growth at 1 µM: 93%
IGROV-1
  growth at 0.1 µM: 100%
SNB-75 [8]
  growth at 100 µM: 49%
